{"source": "paper PMC5324278", "about": "“Novel synthetic analogues of avian β-defensin-12: the role of charge, hydrophobicity, and disulfide bridges in biological functions” (BMC Microbiology, 2017)", "key": {"S. aureus (ATCC 29213)": {"tested_on": "S. aureus (ATCC 29213)", "type": "cell-based, Staphylococcus aureus", "details": "triplicate", "procedure": "(§1) The minimum inhibitory concentrations (MIC) of AvBDs were determined according to the guidelines of the Clinical and Laboratory Standards Institute (CLSI). The Muller Hinton II broth used in standard MIC assays contained 20–25 mg/L of calcium and 10–12.5 mg/L of magnesium. Modified MICs of AvBDs were also determined under a low-salt and low-nutrient condition by using 100× diluted Muller Hinton II broth containing 0.2 mg/L of calcium, 0.1 mg/L magnesium and 5 mM (292 mg/L) NaCl. MIC obtained under the low-salt and low-nutrient condition was referred to as MIC-ls. AvBD peptides were two-fold serially diluted (2 to 256 μg/ml) in a 96-well microtiter plate. An equal volume (μl) of bacterial suspension was added to each well of the plate. The final bacterial concentration in the wells was 5 × 10^5 CFU/ml. […] To complement MIC-ls assays, the minimum bactericidal concentrations (MBC) were evaluated by sub-culturing the contents of the first two clear wells obtained in the MIC-ls assay onto LB agar plates. All assays were conducted in triplicate. The lowest peptide concentration inhibiting more than 99% of bacterial growth was defined as MBC-ls. AvBD analogues were regarded as bactericidal if the MBC was no more than four times the MIC [29]."}, "[1]": {"tested_on": "P. aeruginosa (ATCC 27853)", "type": "cell-based, Pseudomonas aeruginosa", "details": "triplicate", "procedure": "as §1"}, "[2]": {"tested_on": "Pseudomonas aeruginosa (ATCC 27853)", "type": "cell-based", "details": "peptide 16 μg/ml; 2 h at 37 °C; 100-fold diluted Mueller Hinton II broth with 5 mM NaCl; colony count; n = 3", "procedure": "(§2) Escherichia coli (ATCC 25922), Pseudomonas aeruginosa (ATCC 27853), Salmonella enteric serovar Typhimurium (ATCC 14028) and Staphylococcus aureus (ATCC 29213) were used to assess the antimicrobial activity of AvBD analogues. All bacterial strains were grown on Luria-Bertani (LB) agar plates or Trypticase Soy Agar with 5% Sheep Blood (TSA, Thermo Fisher Scientific) plates at 37 °C. Antimicrobial activity was determined by a colony counting assay. In brief, bacteria were resuspended in 100-fold diluted Mueller Hinton II broth with 5 mM NaCl (minimal growth medium) to obtain a final bacterial concentration of 2 × 10^5 CFU/ml. Twenty-five microliters of bacterial suspension and 25 μl of AvBD analogue solution were mixed in the wells of a 96-well polypropylene microtiter plate (Nunc™, Thermo Fisher Scientific). The final peptide concentrations were 2, 4, 8, 16, 32, 64 and 128 μg/ml. The minimal growth medium without AvBD peptide was included as a negative control. The bacterial-peptide mixtures were incubated at 37 °C for 2 h, ten-fold serially diluted and plated on LB agar plates. The numbers of bacteria colonies were enumerated after 16 h of incubation at 37 °C. Antimicrobial activity was expressed as percent of killing using the following formula: (CFUcontrol - CFUtreated) / CFUcontrol × 100%. To assess the resistance of AvBD analogues to sodium chloride (NaCl), antimicrobial assays were carried out in the presence of 5 mM, 50 mM, 100 mM or 150 mM NaCl. All assays were performed in triplicate."}, "[3]": {"tested_on": "Escherichia coli (ATCC 25922)", "type": "cell-based", "details": "peptide 16 μg/ml; 2 h at 37 °C; 100-fold diluted Mueller Hinton II broth with 5 mM NaCl; colony count; n = 3", "procedure": "as §2"}, "[4]": {"tested_on": "Salmonella enteric serovar Typhimurium (ATCC 14028)", "type": "cell-based", "details": "peptide 16 μg/ml; 2 h at 37 °C; 100-fold diluted Mueller Hinton II broth with 5 mM NaCl; colony count; n = 3", "procedure": "as §2"}, "[5]": {"tested_on": "Staphylococcus aureus (ATCC 29213)", "type": "cell-based", "details": "peptide 16 μg/ml; 2 h at 37 °C; 100-fold diluted Mueller Hinton II broth with 5 mM NaCl; colony count; n = 3", "procedure": "as §2"}, "[6]": {"tested_on": "S. Typhimurium (ATCC 14028)", "type": "cell-based, Salmonella enteric serovar Typhimurium", "details": "triplicate", "procedure": "as §1"}, "JAWSII cells": {"tested_on": "JAWSII cells", "assay": "MTT cell cytotoxicity assay", "type": "cell-based, murine", "details": "256 μg/ml; 4, 12, 24 and 48 hours; Student t-test treated vs untreated; n = 3; Figure S1", "procedure": "Chicken macrophage cell lines MQ-NCSU and HD11 were maintained in RPMI-1640 media supplemented with 10% fetal bovine serum (FBS), 2% chicken serum, 100 U/ml penicillin and 100 μg/ml streptomycin (Sigma-Aldrich) at 37 °C in humidified air with 5% CO2. CHO-K1 cells were cultured in the same media without 2% chicken serum. For CCR2-transfected CHO-K1 cells, the medium was supplemented with 500 μg/ml G418 was added (Sigma-Aldrich). Murine immature dendritic cell line JAWSII (ATCC CRL-11904™) was cultured in Alpha minimum essential medium containing 4 mM L-glutamine, 1 mM sodium pyruvate, 5 ng/ml murine Granulocyte macrophage colony-stimulating factor (GM-CSF), 20% FBS, 100 U/ml penicillin and 100 μg/ml streptomycin at 37 °C in humidified air with 5% CO2. The cell cytotoxicity was determined using the MTT (3-(4, 5-dimethylthiazol-2-yl)-2, 5-diphenyltetrazolium bromide metabolic activity assay according to the manufacturer’s instruction (Thermo Fisher Scientific). Briefly, cells (5 × 10^3 cells/well) were seeded in 96-well tissue culture plates, incubated overnight and treated with AvBDs at concentrations of 4, 16, 64 and 256 μg/ml for 4, 12, 24 and 48 h at 37 °C. After treatment, 20 μl of 12 mM MTT solution was added to each well. The plate was incubated for 4 h and read at 540 nm. Viability was expressed as percentage of viable cells relative to the untreated control. […]"}, "E. coli (ATCC 25922)": {"tested_on": "E. coli (ATCC 25922)", "type": "cell-based, Escherichia coli", "details": "triplicate", "procedure": "as §1"}, "CHO-K1 cells": {"tested_on": "CHO-K1 cells", "assay": "MTT cell cytotoxicity assay", "type": "cell-based", "details": "256 μg/ml; 4, 12, 24 and 48 hours; Student t-test treated vs untreated; n = 3; Figure S1", "procedure": "(§3) Chicken macrophage cell lines MQ-NCSU and HD11 were maintained in RPMI-1640 media supplemented with 10% fetal bovine serum (FBS), 2% chicken serum, 100 U/ml penicillin and 100 μg/ml streptomycin (Sigma-Aldrich) at 37 °C in humidified air with 5% CO2. CHO-K1 cells were cultured in the same media without 2% chicken serum. For CCR2-transfected CHO-K1 cells, the medium was supplemented with 500 μg/ml G418 was added (Sigma-Aldrich). Murine immature dendritic cell line JAWSII (ATCC CRL-11904™) was cultured in Alpha minimum essential medium containing 4 mM L-glutamine, 1 mM sodium pyruvate, 5 ng/ml murine Granulocyte macrophage colony-stimulating factor (GM-CSF), 20% FBS, 100 U/ml penicillin and 100 μg/ml streptomycin at 37 °C in humidified air with 5% CO2. The cell cytotoxicity was determined using the MTT (3-(4, 5-dimethylthiazol-2-yl)-2, 5-diphenyltetrazolium bromide metabolic activity assay according to the manufacturer’s instruction (Thermo Fisher Scientific). Briefly, cells (5 × 10^3 cells/well) were seeded in 96-well tissue culture plates, incubated overnight and treated with AvBDs at concentrations of 4, 16, 64 and 256 μg/ml for 4, 12, 24 and 48 h at 37 °C. After treatment, 20 μl of 12 mM MTT solution was added to each well. The plate was incubated for 4 h and read at 540 nm. Viability was expressed as percentage of viable cells relative to the untreated control. The experiments were performed in triplicate."}, "HD11 cells": {"tested_on": "HD11 cells", "assay": "MTT cell cytotoxicity assay", "type": "cell-based, chicken", "details": "256 μg/ml; 4, 12, 24 and 48 hours; Student t-test treated vs untreated; n = 3; Figure S1", "procedure": "as §3"}, "MQ-NCSU cells": {"tested_on": "MQ-NCSU cells", "assay": "MTT cell cytotoxicity assay", "type": "cell-based, chicken", "details": "256 μg/ml; 4, 12, 24 and 48 hours; Student t-test treated vs untreated; n = 3; Figure S1", "procedure": "as §3"}, "[7]": {"tested_on": "avian and mammalian cell lines", "details": "previous findings; cited from earlier work", "procedure": "Data on the highest peptide concentration (256 μg/ml) at various exposure times were presented in Additional file 1: Figure S1. The results were consistent with our previous findings that AvBD-6 and AvBD-12 were non-cytotoxic to avian and mammalian cell lines."}, "[8]": {"details": "100× diluted Muller Hinton II broth, 5 mM NaCl, 5 × 10^5 CFU/ml, 37 °C, 24 h"}, "[9]": {"details": "CLSI, standard Muller Hinton II broth, 5 × 10^5 CFU/ml, 37 °C, 24 h"}, "[10]": {"details": "sub-culture of clear MIC-ls wells on LB agar, lowest concentration inhibiting more than 99% of growth"}}, "note": "Bridge positions count the residues as written; N and C are the ends. Ends that are not written are not given here.", "data": [{"sequence": "GPDSCNHDRGLCRVGNCNPGEYLAKYCFEPVILCCKPLSPTPTKT (disulfide 5-34, 12-27, 17-35) [AvBD-12, avian β-defensin-12]", "values": [{"measurement": "MIC-ls S. aureus (ATCC 29213)", "setting": "S. aureus (ATCC 29213); [8]", "result": 256, "unit": "µg/mL"}, {"measurement": "MIC S. aureus (ATCC 29213)", "setting": "S. aureus (ATCC 29213); [9]", "result": ">256", "unit": "µg/mL"}, {"measurement": "MBC-ls S. aureus (ATCC 29213)", "setting": "S. aureus (ATCC 29213); [10]", "result": 256, "unit": "µg/mL"}, {"measurement": "MIC-ls P. aeruginosa (ATCC 27853)", "setting": "[1]; [8]", "result": 128, "unit": "µg/mL"}, {"measurement": "MIC P. aeruginosa (ATCC 27853)", "setting": "[1]; [9]", "result": ">256", "unit": "µg/mL"}, {"measurement": "MBC-ls P. aeruginosa (ATCC 27853)", "setting": "[1]; [10]", "result": ">256", "unit": "µg/mL"}, {"measurement": "percent of killing of P. aeruginosa", "setting": "[2]", "result": 35.5, "unit": "%"}, {"measurement": "percent of killing of E. coli", "setting": "[3]", "result": 74.4, "unit": "%"}, {"measurement": "percent of killing of S. Typhimurium", "setting": "[4]", "result": 47.3, "unit": "%"}, {"measurement": "percent of killing of S. aureus", "setting": "[5]", "result": 52.9, "unit": "%"}, {"measurement": "MIC-ls S. Typhimurium (ATCC 14028)", "setting": "[6]; [8]", "result": 128, "unit": "µg/mL"}, {"measurement": "MIC S. Typhimurium (ATCC 14028)", "setting": "[6]; [9]", "result": ">256", "unit": "µg/mL"}, {"measurement": "MBC-ls S. Typhimurium (ATCC 14028)", "setting": "[6]; [10]", "result": 256, "unit": "µg/mL"}, {"measurement": "metabolic activity (viability relative to untreated control), JAWSII", "setting": "JAWSII cells", "result": "No significant difference was found"}, {"measurement": "MIC-ls E. coli (ATCC 25922)", "setting": "E. coli (ATCC 25922); [8]", "result": 32, "unit": "µg/mL"}, {"measurement": "MIC E. coli (ATCC 25922)", "setting": "E. coli (ATCC 25922); [9]", "result": 256, "unit": "µg/mL"}, {"measurement": "MBC-ls E. coli (ATCC 25922)", "setting": "E. coli (ATCC 25922); [10]", "result": 128, "unit": "µg/mL"}, {"measurement": "metabolic activity (viability relative to untreated control), CHO-K1", "setting": "CHO-K1 cells", "result": "No significant difference was found"}, {"measurement": "metabolic activity (viability relative to untreated control), HD11", "setting": "HD11 cells", "result": "No significant difference was found"}, {"measurement": "metabolic activity (viability relative to untreated control), MQ-NCSU", "setting": "MQ-NCSU cells", "result": "No significant difference was found"}, {"measurement": "cytotoxicity to avian and mammalian cell lines", "setting": "[7]", "result": "non-cytotoxic"}]}]}
